Results as given in patent publication US20110152302A1, “Novel dicyclanil-based shelf stable aqueous suspension and non-aqueous solution pour-on and spray-on formulations useful for the prevention and treatment of insect infestation in animals” (priority 2009, published 2011).
Each block holds one compound with its values, some of them ahead of it.

How the values were obtained:
[1] = Dicyclanil crystal formation in water with 5% surfactant; assay type: physicochemical
Description: A commercially manufactured batch of Dicyclanil Polymorph A was sourced. This crystalline form was confirmed by X-Ray Diffraction (FIG. 1). Studies were then conducted to determine the ability of various surfactants to prevent the growth of dicyclanil crystals suspended in water. Nonyl phenol and octyl phenol ethoxylates were tested in an aqueous medium according to TABLE 2.
Given the inability of the surfactants of TABLE 2 to prevent crystal growth, a further range of surfactants was tested.

[2] = Solubility of dicyclanil in solvents at 25° C.; assay type: physicochemical
Description: (§1) Materials and Methods: To determine the range of potential non-aqueous solvents to be used in producing dicyclanil solution formulations, a range of solubility studies were performed. The method employed was to add 500 mg quantities of dicyclanil into 10 mL each of solvent. If the drug dissolved it was placed into the refrigerator overnight. Samples were then taken out of the refrigerator and checked for the emergence of precipitate after the sample had been returned to room temperature. Thereafter, dicyclanil was added to each solution, 100 mg each time, until no more dicyclanil would dissolve in the solvent (i.e. dicyclanil was added until the solution reached its saturation concentration for dicyclanil).
As a result, a further range of solvents was tested. The solvents used for these solubility studies are defined in TABLE 13.

[3] = more active than cyromazine; cited from earlier work
[4] = Solubility of dicyclanil in solvents at 70° C.; assay type: physicochemical
[5] = Maximum solubility of dicyclanil in non-aqueous solvents; assay type: physicochemical
Description: as §1
Results: An initial range of solvents was obtained (TABLE 12).

[6] = Stability of dicyclanil 5% PEG200 solutions, refrigerated and accelerated temperature, 5 days; assay type: physicochemical
Description: Materials and Methods: A formulation was prepared in the following manner (concentration summarized in TABLE 16): • a) Loaded 90% PEG 200 • b) Added Dicyclanil with mixing • c) Made to volume with PEG 200 • d) Mixed until dissolved
Several test formulations were made to determine their stability under refrigerated (2-8° C.) and accelerated temperature (70° C.) conditions for 5 days. DIC 021, 022 and 025 were prepared according to the method described above.

[7] = water with 5% surfactant, Most = >90%

Dicyclanil Crystal Formation, 3 days [1, 7]: Large crystals up to 200μ
Dicyclanil Crystal Formation, Initial [1, 7]: Mostly up to 200μ
SMILES: CCCCCCCCCCCCOS(=O)(=O)[O-].[Na+] [Sodium lauryl sulphate]

SMILES: N#Cc1c(N)nc(NC2CC2)nc1N [Dicyclanil, 4,6-diamino-2-(cyclopropylamino)-5-pyrimidinecarbonitrile]
solubility of dicyclanil, soluble at 5% ([2]; 25° C., BA): less
solubility of dicyclanil, soluble at 5% ([2]; 25° C., DGBE): less
solubility of dicyclanil, soluble at 5% ([2]; 25° C., DGMEE): less
solubility of dicyclanil, soluble at 5% ([2]; 25° C., DMA): ✓
solubility of dicyclanil, soluble at 6% ([2]; 25° C., DMA): ✓
solubility of dicyclanil, soluble at 7% ([2]; 25° C., DMA): ✓
solubility of dicyclanil, soluble at 8% ([2]; 25° C., DMA): ✓
solubility of dicyclanil, soluble at 9% ([2]; 25° C., DMA): ✓
solubility of dicyclanil, soluble at 10% ([2]; 25° C., DMA, 10%): ✓
solubility of dicyclanil, soluble at 11% ([2]; 25° C., DMA, 11%): ✓
solubility of dicyclanil, soluble at 12% ([2]; 25° C., DMA, 12%): ✓
solubility of dicyclanil, soluble at 13% ([2]; 25° C., DMA, 13%): ✓
solubility of dicyclanil, soluble at 14% ([2]; 25° C., DMA, 14%): ✓
solubility of dicyclanil, soluble at 15% ([2]; 25° C., DMA, 15%): ✓
solubility of dicyclanil, soluble at 16% ([2]; 25° C., DMA, 16%): ✓
solubility of dicyclanil, soluble at 17% ([2]; 25° C., DMA, 17%): ✓
solubility of dicyclanil, soluble at 18% ([2]; 25° C., DMA, 18%): ✓
solubility of dicyclanil, soluble at 5% ([2]; 25° C., DMSO): ✓
solubility of dicyclanil, soluble at 6% ([2]; 25° C., DMSO): ✓
solubility of dicyclanil, soluble at 7% ([2]; 25° C., DMSO): ✓
solubility of dicyclanil, soluble at 8% ([2]; 25° C., DMSO): ✓
solubility of dicyclanil, soluble at 9% ([2]; 25° C., DMSO): ✓
solubility of dicyclanil, soluble at 5% ([2]; 25° C., EL): less
solubility of dicyclanil, soluble at 5% ([2]; 25° C., GF): less
solubility of dicyclanil, soluble at 5% ([2]; 25° C., IPA): less
solubility of dicyclanil, soluble at 5% ([2]; 25° C., PEG200): ✓
solubility of dicyclanil, soluble at 6% ([2]; 25° C., PEG200): ✓
solubility of dicyclanil, soluble at 7% ([2]; 25° C., PEG200): ✓
solubility of dicyclanil, soluble at 5% ([2]; 25° C., PEG400): less
solubility of dicyclanil, soluble at 5% ([2]; 25° C., PG): less
solubility in words ([2]; Isopropyl Alcohol, Benzyl Alcohol, Ethyl Lactate, Propylene Glycol, Diethylene Glycol monobutyl Ether): quite insoluble
solubility of dicyclanil in PEG200 ([2]; at 25° C., PEG200): 7%
solubility of dicyclanil in PEG400 ([2]; at 25° C., PEG400): less than 5%
activity relative to cyromazine [3]: 10 times
solubility of dicyclanil, soluble at 5% ([4]; BA, 5%): less
solubility of dicyclanil, soluble at 5% ([4]; DGBE, 5%): less
solubility of dicyclanil, soluble at 5% ([4]; DGMEE, 5%): ✓
solubility of dicyclanil, soluble at 5% ([4]; DMA, 5%): ✓
solubility of dicyclanil, soluble at 10% ([4]; DMA): ✓
solubility of dicyclanil, soluble at 15% ([4]; DMA): ✓
solubility of dicyclanil, soluble at 20% ([4]; DMA): ✓
solubility of dicyclanil, soluble at 25% ([4]; DMA): ✓
solubility of dicyclanil, soluble at 5% ([4]; DMSO, 5%): ✓
solubility of dicyclanil, soluble at 10% ([4]; DMSO): ✓
solubility of dicyclanil, soluble at 15% ([4]; DMSO): ✓
solubility of dicyclanil, soluble at 20% ([4]; DMSO): ✓
solubility of dicyclanil, soluble at 25% ([4]; DMSO): ✓
solubility of dicyclanil, soluble at 5% ([4]; EL, 5%): ✓
solubility of dicyclanil, soluble at 5% ([4]; GF, 5%): ✓
solubility of dicyclanil, soluble at 10% ([4]; GF): ✓
solubility of dicyclanil, soluble at 5% ([4]; IPA, 5%): less
solubility of dicyclanil, soluble at 5% ([4]; PEG400, 5%): ✓
solubility of dicyclanil, soluble at 5% ([4]; PG, 5%): less
Dicyclanil Crystal Formation, 3 days ([1]; water, No surfactant added): Large crystals up to 200μ
Dicyclanil Crystal Formation, Initial ([1]; water, No surfactant added): Long thin, up to 200μ
solubility in words ([5]; many of the commonly used veterinary topical solvents (TABLE 12)): quite insoluble
Maximum solubility (% w/v) ([5]; solvent 2-Pyrollidone): 1% w/v
Maximum solubility (% w/v) ([5]; solvent Benzyl Alcohol): <1% w/v
Maximum solubility (% w/v) ([5]; solvent DGBE): 2% w/v
Maximum solubility (% w/v) ([5]; solvent Glycofurol): 6% w/v
Maximum solubility (% w/v) ([5]; solvent IPM): <1% w/v
Maximum solubility (% w/v) ([5]; solvent MIGLYOL 810): <1% w/v
Maximum solubility (% w/v) ([5]; solvent MIGLYOL 840): <1% w/v
Maximum solubility (% w/v) ([5]; solvent NMP): 4% w/v
Maximum solubility (% w/v) ([5]; solvent Propylene Glycol): 1% w/v
solubility in PEG (in words) ([6]; PEG): good solubility
concentration at which dicyclanil remains stable without additional excipients ([6]; PEG-based formulations): at least 5%

Dicyclanil Crystal Formation, 3 days [1, 7]: Large crystals up to 200μ
Dicyclanil Crystal Formation, Initial [1, 7]: Up to 100μ
SMILES: CCCCC(CC)COC(=O)CC(C(=O)OCC(CC)CCCC)S(=O)(=O)[O-].[Na+] (centres unmarked) [Docusate sodium]
